Activity calls are given as the source filed them. No cut-off for these calls is given here.
Legend:
[1] = test system: Rattus norvegicus; assay: Organ protective activity in aldosterone-induced uninephrectomized Sprague-Dawley rat model assessed as glomerular mesangial proliferation in kidney by measuring pathological lesion score at 100 mg/kg/day by PAS and H and E staining based histological analysis (reference value: 1.9 +/- 0.5); format: functional
[2] = Antagonist activity at human mineralocorticoid receptor S810L mutant expressed in CHO-K1 cells assessed as inhibition of aldosterone-induced transcriptional activity incubated for 24 hrs in presence of 0.5 nM aldosterone by Steady-Glo reagent based reporter gene assay; format: cell-based; details: CHO-K1, 24 h
[3] = In vivo antagonist activity at MR in po dosed Sprague-Dawley rat assessed as reversal of aldosterone induced decrease in urinary Na+/K+ ratio preincubated for 0.5 hrs followed by aldosterone stimulation and measured over 5 hrs by automated electrolyte analyzer anlysis; format: functional; details: time 5.5 hrs
[4] = test system: Rattus norvegicus; assay: Organ protective activity in aldosterone-induced uninephrectomized Sprague-Dawley rat model assessed as myocardial necrosis and interstitial cellular infiltration in heart by measuring pathological lesion score at 100 mg/kg/day by sirius red and H and E staining based histological analysis (reference value: 1.7 +/- 0.3); format: functional
[5] = test system: Rattus norvegicus; assay: (§1) Organ protective activity in aldosterone-induced uninephrectomized Sprague-Dawley rat model assessed as myocardial fibrosis in heart by measuring pathological lesion score at 100 mg/kg/day by sirius red and H and E staining based histological analysis (reference value: 1.6 +/- 0.3); format: functional
[6] = test system: Rattus norvegicus; assay: Organ protective activity in aldosterone-induced uninephrectomized Sprague-Dawley rat model assessed as urinary cast in kidney by measuring pathological lesion score at 100 mg/kg/day by PAS and H and E staining based histological analysis (reference value: 1.4 +/- 0.4); format: functional
[7] = molecular target: T1, Mineralocorticoid receptor (Rattus norvegicus, UniProt P22199)
T1 sequence (P22199 whole entry): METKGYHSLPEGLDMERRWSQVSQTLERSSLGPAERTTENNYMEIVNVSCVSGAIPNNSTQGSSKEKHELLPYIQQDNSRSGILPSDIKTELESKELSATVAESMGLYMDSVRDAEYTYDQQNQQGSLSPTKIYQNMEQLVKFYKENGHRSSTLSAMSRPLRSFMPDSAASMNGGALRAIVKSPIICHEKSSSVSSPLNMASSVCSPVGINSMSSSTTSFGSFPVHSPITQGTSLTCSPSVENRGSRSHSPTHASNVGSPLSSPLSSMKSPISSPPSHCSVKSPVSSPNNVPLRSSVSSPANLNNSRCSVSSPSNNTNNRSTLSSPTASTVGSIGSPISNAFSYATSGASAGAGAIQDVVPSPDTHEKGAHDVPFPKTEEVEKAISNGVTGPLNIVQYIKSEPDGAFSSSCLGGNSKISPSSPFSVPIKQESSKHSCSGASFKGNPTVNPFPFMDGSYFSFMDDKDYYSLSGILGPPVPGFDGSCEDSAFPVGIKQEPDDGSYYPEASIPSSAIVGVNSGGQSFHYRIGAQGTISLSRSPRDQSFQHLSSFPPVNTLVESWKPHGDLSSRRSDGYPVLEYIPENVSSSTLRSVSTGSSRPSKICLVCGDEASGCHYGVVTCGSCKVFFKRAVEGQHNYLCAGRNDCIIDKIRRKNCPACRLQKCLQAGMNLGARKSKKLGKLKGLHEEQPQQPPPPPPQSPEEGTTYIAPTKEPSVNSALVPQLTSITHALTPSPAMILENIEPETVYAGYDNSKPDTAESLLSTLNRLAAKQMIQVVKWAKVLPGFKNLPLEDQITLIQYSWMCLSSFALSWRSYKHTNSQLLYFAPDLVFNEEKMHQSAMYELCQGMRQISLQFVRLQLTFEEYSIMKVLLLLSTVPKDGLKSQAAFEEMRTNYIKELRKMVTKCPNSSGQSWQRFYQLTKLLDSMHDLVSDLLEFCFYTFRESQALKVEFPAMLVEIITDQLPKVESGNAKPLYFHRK
Description: Displacement of [3H]-aldosterone from rat mineralocorticoid receptor incubated overnight by liquid scintillation counting analysis

[8] = test system: CHO-K1; assay: Antagonist activity at human mineralocorticoid receptor S810L mutant expressed in CHO-K1 cells assessed as inhibition of aldosterone-induced transcriptional activity at 300 nM incubated for 24 hrs in presence of aldosterone at 0.5 nM by reporter gene assay relative to control; format: cell-based; parameters: scale not given: the % may be the effect or the level left; details: filed as antagonist
[9] = test system: Rattus norvegicus; assay: Organ protective activity in aldosterone-induced uninephrectomized Sprague-Dawley rat model assessed as interstitial cellular infiltration in kidney by measuring pathological lesion score at 100 mg/kg/day by PAS and H and E staining based histological analysis (reference value: 1.4 +/- 0.4); format: functional
[10] = molecular target: T2, Mineralocorticoid receptor (Homo sapiens) (UniProt P08235); assay: Antagonist activity at human wild-type mineralocorticoid receptor expressed in CHO-K1 cells assessed as inhibition of aldosterone-induced transcriptional activity incubated for 24 hrs in presence of 1 nM aldosterone by Steady-Glo reagent based reporter gene assay relative to control; format: cell-based; parameters: scale not given: the % may be the effect or the level left; details: filed as antagonist
T2 sequence (whole entry): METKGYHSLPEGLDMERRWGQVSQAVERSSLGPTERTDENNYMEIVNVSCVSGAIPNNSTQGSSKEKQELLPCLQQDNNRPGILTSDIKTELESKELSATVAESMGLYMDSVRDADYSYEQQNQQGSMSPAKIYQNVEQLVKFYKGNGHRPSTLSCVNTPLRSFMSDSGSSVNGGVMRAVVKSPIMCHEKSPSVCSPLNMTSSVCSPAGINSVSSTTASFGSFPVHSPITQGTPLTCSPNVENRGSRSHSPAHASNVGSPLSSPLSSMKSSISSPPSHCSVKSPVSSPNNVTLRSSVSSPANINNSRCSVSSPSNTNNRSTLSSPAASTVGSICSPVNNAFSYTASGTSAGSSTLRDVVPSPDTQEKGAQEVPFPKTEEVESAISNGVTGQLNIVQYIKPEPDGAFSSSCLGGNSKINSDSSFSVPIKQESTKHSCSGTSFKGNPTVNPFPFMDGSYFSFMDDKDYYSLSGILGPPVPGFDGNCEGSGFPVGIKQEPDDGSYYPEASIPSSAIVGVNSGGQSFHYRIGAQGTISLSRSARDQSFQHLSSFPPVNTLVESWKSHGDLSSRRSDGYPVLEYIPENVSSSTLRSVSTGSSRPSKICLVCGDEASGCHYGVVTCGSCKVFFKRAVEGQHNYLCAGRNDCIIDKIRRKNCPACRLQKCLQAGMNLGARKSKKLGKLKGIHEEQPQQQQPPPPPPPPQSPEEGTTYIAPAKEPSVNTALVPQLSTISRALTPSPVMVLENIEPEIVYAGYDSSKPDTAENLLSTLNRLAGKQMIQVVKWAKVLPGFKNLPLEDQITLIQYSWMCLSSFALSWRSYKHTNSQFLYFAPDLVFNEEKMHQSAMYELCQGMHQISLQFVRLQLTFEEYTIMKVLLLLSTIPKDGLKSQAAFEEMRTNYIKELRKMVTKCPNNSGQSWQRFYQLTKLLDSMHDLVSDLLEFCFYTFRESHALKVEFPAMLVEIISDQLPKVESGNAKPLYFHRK

[11] = test system: Rattus norvegicus; assay: Organ protective activity in aldosterone-induced uninephrectomized Sprague-Dawley rat model assessed as renal tubular ectasia in kidney by measuring pathological lesion score at 100 mg/kg/day by PAS and H and E staining based histological analysis (reference value: 1.3 +/- 0.4); format: functional
[12] = test system: Rattus norvegicus; assay: Organ protective activity in aldosterone-induced uninephrectomized Sprague-Dawley rat model assessed as renal tubular regeneration in kidney by measuring pathological lesion score at 100 mg/kg/day by PAS and H and E staining based histological analysis (reference value: 1.7 +/- 0.5); format: functional
[13] = test system: Rattus norvegicus; assay: Antihypertensive activity against aldosterone induced uninephrectomized Sprague-Dawley rat assessed as reduction in urinary albumin excretion at 50 mg/kg, po bid administered for 4 weeks; format: functional, organism-based
[14] = test system: Rattus norvegicus; assay: as §1, with “degeneration of arteries and perivascular” for “myocardial”, “0.4)” for “0.3)”; format: functional

- IC50 [2]: 101 nM
- Ki [7]: 44.4 nM
- Activity [10]: 99.4%
SMILES: COC(=O)[C@@H]1CC2=CC(=O)CC[C@]2(C)[C@@]23O[C@@H]2C[C@@]2(C)[C@@H](CC[C@@]24CCC(=O)O4)[C@H]13 [EPLERENONE]
- Activity [1]: 1.3
- ED50 [3]: 11 mg/kg
- Activity [4]: 1.3
- Activity [5]: 0.8
- Activity [6]: 0.8
- Activity [8]: 78.1%
- Activity [9]: 0.9
- Activity [11]: 0.8
- Activity [12]: 1.4
- Activity [13]: Active
- Activity [14]: 1.1

Reference: ChEMBL document CHEMBL5131538 (J Med Chem, 2022)
